Test results reported in article PMC7119063 (Bioorganic & Medicinal Chemistry, 2005).
“Also recorded” adds a separate entry of the source.

Columns and labels:
SARS-CoV 3CL protease = SARS-CoV 3CL protease (Severe acute respiratory syndrome coronavirus, UniProt P0C6X7); format: biochemical
SARS-CoV [1] = format: cell-based
SARS-CoV [2] = conditions: cited from earlier work
[3] = system: human rhinovirus (HRV) 3C protease; conditions: cited from earlier work

For `CCOC(=O)C=CC(CC1CCNC1=O)NC(=O)C(CC(=O)C(NC(=O)c1cc(C)on1)C(C)C)Cc1ccc(F)cc1` (centres unmarked) [Compound 1a, Ethyl 4-[2-(4-fluorobenzyl)-6-methyl-5-(5-methyl-3-isoxazolyl)carbonylamino-1,4-dioxoheptylamino]-5-(2-oxo-3-pyrrolidinyl)-2-pentenoate], the “inhibitory activity against SARS-CoV 3CL protease (in words)” value (SARS-CoV 3CL protease) is given as “no inhibitory activity; also recorded: inactive”, the “concentration at which active as anti-SARS agent (protection from CPE)” value (SARS-CoV [1]) is given as “inactive” and the “activity to the SARS-CoV in a cell-based assay” value (SARS-CoV [2]) is given as “inactive”. For the same compound, the “inhibition of HRV 3C protease (in words)” value [3] was “potent inhibitor”.
For `CC(C)[C@@H]1NC(=O)[C@H](C)OC(=O)[C@@H](C(C)C)NC(=O)[C@@H](C(C)C)OC(=O)[C@H](C(C)C)NC(=O)[C@H](C)OC(=O)[C@@H](C(C)C)NC(=O)[C@@H](C(C)C)OC(=O)[C@H](C(C)C)NC(=O)[C@H](C)OC(=O)[C@@H](C(C)C)NC(=O)[C@@H](C(C)C)OC1=O` [valinomycin], the EC50 (SARS-CoV [2]) is listed as 850 nM.
